Article PMC8341910, “Structural and biophysical insights into the mode of covalent binding of rationally designed potent BMX inhibitors” (RSC Chemical Biology, 2020)

Experiments:
H1299 = assay: Multi cell line growth assay (CellTiter-Glo, 72 h); format: cell-based, human; settings: Homo sapiens, NCI-H1299, Bone marrow (so in the source), ND = no growth inhibition observed
PC3 = assay: Multi cell line growth assay (CellTiter-Glo, 72 h); format: cell-based, human; settings: Homo sapiens, PC-3, Prostate, ND = no growth inhibition observed
22 RV1 = assay: Multi cell line growth assay (CellTiter-Glo, 72 h); format: cell-based, human; settings: Homo sapiens, 22Rv1, Prostate, ND = no growth inhibition observed
Jurkat = assay: Multi cell line growth assay (CellTiter-Glo, 72 h); format: cell-based, human; settings: Homo sapiens, Jurkat, Blood, ND = no growth inhibition observed
HCK = HCK (Homo sapiens, UniProt P08631); assay: KINOMEscan binding; settings: read-out: % Ctrl HCK
Experimental: (§1) Therefore, we included the whole TEC, EGFR and JAK family in our screening, and the Src family and Lkb1, which also have a cysteine within the same sequence alignment.
(§2) Kinome selectivity was performed with DiscoverX KINOMEscan™ technology.

FYN = FYN (Homo sapiens, UniProt P06241); assay: KINOMEscan binding; settings: read-out: % Ctrl FYN
Experimental: (§3) Therefore, we included the whole TEC, EGFR and JAK family in our screening, and the Src family and Lkb1, which also have a cysteine within the same sequence alignment. We also included kinases involved in upstream (Src, FAK, PI3K, mTOR, PDK1) and downstream (Akt, PAK1, TAM) regulation of BMX signaling pathway and non-receptor tyrosine protein kinase Abl.
as §2

AKT3 = AKT3 (Homo sapiens, UniProt Q9Y243); assay: KINOMEscan binding; settings: read-out: % Ctrl AKT3
Experimental: as §3, §2

LYN = LYN (Homo sapiens, UniProt P07948); assay: KINOMEscan binding; settings: read-out: % Ctrl LYN
Experimental: as §3, §2

YES1 = YES1 (Homo sapiens, UniProt P07947); assay: KINOMEscan binding; settings: read-out: % Ctrl YES1
Experimental: as §1, §2

SRC = SRC (Homo sapiens, UniProt P12931); assay: KINOMEscan binding; settings: read-out: % Ctrl SRC
Experimental: as §3, §2

ITK = ITK (Homo sapiens, UniProt Q08881); assay: KINOMEscan binding; settings: read-out: % Ctrl ITK
Experimental: as §1, §2

LCK = LCK (Homo sapiens, UniProt P06239); assay: KINOMEscan binding; settings: read-out: % Ctrl LCK
Experimental: as §1, §2

[1] = biological target: JAK1(JH1domain-catalytic) (Homo sapiens, UniProt P23458); assay: KINOMEscan binding; settings: read-out: % Ctrl JAK1(JH1domain-catalytic)
Experimental: as §1, §2

ERBB4 = ERBB4 (Homo sapiens, UniProt Q15303); assay: KINOMEscan binding; settings: read-out: % Ctrl ERBB4
Experimental: as §1, §2

PDPK1 = PDPK1 (Homo sapiens, UniProt O15530); assay: KINOMEscan binding; settings: read-out: % Ctrl PDPK1
Experimental: as §3, §2

PAK1 = PAK1 (Homo sapiens, UniProt Q13153); assay: KINOMEscan binding; settings: read-out: % Ctrl PAK1
Experimental: as §3, §2

BLK = BLK (Homo sapiens, UniProt P51451); assay: KINOMEscan binding; settings: read-out: % Ctrl BLK
Experimental: as §1, §2

ERBB2 = ERBB2 (Homo sapiens, UniProt P04626); assay: KINOMEscan binding; settings: read-out: % Ctrl ERBB2
Experimental: as §1, §2

EGFR = EGFR (Homo sapiens, UniProt P00533); assay: KINOMEscan binding; settings: read-out: % Ctrl EGFR
Experimental: as §1, §2

AKT2 = AKT2 (Homo sapiens, UniProt P31751); assay: KINOMEscan binding; settings: read-out: % Ctrl AKT2
Experimental: as §3, §2

AXL = AXL (Homo sapiens, UniProt P30530); assay: KINOMEscan binding; settings: read-out: % Ctrl AXL
Experimental: as §3, §2

ERBB4, sequence (Q15303 26-1308): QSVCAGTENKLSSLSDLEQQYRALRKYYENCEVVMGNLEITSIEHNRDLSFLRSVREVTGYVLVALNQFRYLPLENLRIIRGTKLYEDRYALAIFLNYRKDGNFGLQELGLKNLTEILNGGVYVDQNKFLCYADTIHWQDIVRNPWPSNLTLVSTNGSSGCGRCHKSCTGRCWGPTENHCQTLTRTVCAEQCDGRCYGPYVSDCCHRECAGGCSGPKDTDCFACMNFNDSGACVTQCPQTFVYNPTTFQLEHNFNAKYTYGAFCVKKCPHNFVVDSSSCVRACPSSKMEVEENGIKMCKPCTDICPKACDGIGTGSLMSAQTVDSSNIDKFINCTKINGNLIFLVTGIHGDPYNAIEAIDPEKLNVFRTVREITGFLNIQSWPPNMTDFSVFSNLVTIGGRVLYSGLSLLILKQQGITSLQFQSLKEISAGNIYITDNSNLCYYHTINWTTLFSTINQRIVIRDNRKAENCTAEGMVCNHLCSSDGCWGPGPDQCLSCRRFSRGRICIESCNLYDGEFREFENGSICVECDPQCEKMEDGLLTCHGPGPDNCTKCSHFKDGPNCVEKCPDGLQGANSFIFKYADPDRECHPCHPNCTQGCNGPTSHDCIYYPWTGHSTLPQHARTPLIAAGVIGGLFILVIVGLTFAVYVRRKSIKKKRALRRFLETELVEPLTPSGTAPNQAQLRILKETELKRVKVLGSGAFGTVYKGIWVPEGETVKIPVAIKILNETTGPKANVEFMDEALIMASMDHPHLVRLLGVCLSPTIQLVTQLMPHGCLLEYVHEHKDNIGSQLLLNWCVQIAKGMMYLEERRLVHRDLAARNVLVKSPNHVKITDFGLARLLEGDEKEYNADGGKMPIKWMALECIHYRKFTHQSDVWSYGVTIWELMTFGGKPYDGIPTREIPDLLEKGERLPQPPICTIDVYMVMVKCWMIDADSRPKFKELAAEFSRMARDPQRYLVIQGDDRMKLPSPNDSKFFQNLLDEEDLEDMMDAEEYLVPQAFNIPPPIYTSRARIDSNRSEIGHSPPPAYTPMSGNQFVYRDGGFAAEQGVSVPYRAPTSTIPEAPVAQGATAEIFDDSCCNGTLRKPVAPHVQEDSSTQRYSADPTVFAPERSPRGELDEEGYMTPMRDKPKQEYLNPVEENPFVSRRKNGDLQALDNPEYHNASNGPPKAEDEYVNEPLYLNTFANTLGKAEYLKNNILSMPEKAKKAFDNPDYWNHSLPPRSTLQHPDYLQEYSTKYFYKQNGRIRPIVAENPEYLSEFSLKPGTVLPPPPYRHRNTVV
LCK, sequence (P06239 whole entry): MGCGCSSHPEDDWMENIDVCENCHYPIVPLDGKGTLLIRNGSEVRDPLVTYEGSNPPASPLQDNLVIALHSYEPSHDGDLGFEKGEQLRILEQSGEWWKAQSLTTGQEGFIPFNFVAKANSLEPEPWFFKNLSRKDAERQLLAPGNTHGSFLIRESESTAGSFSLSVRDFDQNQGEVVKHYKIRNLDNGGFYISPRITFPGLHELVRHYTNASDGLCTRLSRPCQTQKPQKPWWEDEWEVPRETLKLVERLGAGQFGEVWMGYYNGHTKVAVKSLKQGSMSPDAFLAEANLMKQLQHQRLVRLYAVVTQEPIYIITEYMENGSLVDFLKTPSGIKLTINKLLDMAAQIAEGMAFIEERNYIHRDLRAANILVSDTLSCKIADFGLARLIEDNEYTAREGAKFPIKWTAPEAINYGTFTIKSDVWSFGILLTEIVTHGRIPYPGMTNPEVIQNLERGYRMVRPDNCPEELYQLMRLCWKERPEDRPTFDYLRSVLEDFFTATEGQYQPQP
SRC, sequence (P12931 whole entry): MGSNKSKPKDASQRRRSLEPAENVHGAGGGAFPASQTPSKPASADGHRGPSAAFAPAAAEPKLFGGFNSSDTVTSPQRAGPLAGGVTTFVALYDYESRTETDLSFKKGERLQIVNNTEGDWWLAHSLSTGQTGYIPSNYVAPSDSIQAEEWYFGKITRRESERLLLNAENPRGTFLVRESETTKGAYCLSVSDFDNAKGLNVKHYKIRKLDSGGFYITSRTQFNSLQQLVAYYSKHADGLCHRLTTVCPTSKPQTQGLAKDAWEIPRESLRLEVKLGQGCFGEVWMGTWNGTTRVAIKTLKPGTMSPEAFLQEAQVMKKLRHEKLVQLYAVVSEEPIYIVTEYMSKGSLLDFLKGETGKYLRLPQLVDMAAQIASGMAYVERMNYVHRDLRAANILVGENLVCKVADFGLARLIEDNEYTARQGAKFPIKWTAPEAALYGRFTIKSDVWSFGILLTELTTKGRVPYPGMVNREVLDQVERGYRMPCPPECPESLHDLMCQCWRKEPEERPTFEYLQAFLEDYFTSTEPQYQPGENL
ERBB2, sequence (P04626 23-1255): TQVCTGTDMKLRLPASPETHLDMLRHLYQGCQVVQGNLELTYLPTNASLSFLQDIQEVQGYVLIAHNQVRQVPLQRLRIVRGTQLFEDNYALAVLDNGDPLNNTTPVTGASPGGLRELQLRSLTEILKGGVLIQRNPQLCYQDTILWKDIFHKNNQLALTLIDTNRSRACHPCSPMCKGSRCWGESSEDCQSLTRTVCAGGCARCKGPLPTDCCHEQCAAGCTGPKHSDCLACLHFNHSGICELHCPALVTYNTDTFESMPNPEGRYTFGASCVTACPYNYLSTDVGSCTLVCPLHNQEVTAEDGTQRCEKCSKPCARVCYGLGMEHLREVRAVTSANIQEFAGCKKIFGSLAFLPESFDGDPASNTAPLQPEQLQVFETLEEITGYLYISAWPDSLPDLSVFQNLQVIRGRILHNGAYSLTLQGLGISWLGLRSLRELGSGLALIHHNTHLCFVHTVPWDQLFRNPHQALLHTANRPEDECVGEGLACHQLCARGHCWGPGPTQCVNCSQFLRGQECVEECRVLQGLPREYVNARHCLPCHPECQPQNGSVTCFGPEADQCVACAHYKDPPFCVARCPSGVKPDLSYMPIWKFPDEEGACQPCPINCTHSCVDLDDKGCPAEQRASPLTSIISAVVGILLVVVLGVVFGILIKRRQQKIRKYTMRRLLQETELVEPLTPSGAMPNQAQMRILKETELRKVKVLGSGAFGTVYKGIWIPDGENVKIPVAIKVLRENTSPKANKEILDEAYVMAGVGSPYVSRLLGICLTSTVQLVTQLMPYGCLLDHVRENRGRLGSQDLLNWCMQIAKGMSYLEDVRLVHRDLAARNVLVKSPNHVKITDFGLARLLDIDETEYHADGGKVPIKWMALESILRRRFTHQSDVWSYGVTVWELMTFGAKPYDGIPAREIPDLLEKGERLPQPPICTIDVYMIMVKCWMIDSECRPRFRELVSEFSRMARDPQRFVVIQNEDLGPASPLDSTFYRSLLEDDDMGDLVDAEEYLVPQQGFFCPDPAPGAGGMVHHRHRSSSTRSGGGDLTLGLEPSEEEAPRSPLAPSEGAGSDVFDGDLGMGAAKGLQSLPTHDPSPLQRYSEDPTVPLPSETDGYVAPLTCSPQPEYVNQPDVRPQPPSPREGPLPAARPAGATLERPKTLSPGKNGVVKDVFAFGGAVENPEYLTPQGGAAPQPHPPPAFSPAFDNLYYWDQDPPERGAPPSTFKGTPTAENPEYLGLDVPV
EGFR, sequence (P00533 25-1210): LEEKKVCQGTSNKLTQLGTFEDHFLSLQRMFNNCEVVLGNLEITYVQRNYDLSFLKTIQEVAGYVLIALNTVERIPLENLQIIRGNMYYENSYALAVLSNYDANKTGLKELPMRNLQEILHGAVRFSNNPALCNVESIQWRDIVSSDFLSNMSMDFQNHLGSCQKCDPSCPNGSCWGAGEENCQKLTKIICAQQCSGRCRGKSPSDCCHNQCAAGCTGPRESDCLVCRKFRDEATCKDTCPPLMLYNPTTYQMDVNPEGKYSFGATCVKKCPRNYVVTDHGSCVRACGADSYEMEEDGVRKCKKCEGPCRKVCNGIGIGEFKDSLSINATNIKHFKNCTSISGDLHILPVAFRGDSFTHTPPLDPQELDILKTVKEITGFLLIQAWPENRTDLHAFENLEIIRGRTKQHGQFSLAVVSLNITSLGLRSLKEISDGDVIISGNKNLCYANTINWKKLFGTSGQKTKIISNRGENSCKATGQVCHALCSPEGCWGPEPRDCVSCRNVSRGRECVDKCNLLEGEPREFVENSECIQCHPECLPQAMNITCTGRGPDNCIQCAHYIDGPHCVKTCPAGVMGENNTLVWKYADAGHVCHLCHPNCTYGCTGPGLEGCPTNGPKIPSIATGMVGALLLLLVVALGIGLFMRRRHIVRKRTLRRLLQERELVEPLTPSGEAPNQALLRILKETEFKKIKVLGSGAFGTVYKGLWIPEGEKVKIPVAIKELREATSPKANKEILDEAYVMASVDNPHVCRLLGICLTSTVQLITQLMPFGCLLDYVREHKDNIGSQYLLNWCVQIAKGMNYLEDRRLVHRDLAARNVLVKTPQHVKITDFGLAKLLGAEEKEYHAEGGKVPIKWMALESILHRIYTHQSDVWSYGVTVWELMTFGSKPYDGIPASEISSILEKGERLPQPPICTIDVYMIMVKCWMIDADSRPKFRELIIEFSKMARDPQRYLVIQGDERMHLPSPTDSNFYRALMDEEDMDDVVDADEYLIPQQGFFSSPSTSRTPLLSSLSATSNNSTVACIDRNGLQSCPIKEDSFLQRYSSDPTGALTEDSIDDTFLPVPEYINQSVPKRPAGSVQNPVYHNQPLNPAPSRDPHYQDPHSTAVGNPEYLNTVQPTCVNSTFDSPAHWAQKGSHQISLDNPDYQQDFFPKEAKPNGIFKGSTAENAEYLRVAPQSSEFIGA
JAK1(JH1domain-catalytic), sequence (P23458 867-1154 limits assumed): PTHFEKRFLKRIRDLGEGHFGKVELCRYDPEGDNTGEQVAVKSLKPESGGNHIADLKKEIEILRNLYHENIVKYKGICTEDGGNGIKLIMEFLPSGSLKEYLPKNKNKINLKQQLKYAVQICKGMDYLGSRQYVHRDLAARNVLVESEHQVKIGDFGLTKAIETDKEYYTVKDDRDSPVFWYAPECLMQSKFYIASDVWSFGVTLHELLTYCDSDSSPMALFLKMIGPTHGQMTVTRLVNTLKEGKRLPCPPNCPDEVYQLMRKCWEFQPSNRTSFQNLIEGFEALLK

Question: C=CC(=O)Nc1cc(-n2c(=O)ccc3cnc4cc(-c5ccc(NS(C)(=O)=O)cc5)ccc4c32)ccc1C [JS24] was tested. Which GI50 (H1299) did it give?
Answer: 7.28 ± 0.37 µM

Question: What about the GI50 (PC3) of the same compound?
Answer: 4.8 µM

Question: What about the GI50 (22 RV1) of the same compound?
Answer: 6.66 ± 0.09 µM

Question: And the GI50 (Jurkat)?
Answer: 5.48 µM

Question: What does the source list for C=CC(=O)Nc1cc(C)cc(-n2c(=O)ccc3cnc4cc(-c5ccc(NS(C)(=O)=O)cc5)ccc4c32)c1 [JS25]?
Answer: remaining binding at 1 µM (HCK): 95%; remaining binding at 1 µM (FYN): 99%; remaining binding at 1 µM (AKT3): 99%; remaining binding at 1 µM (LYN): 100%; remaining binding at 1 µM (YES1): 85%; remaining binding at 1 µM (SRC): 92%; remaining binding at 1 µM (ITK): 4.7%; remaining binding at 1 µM (LCK): 80%; remaining binding at 1 µM [1]: 93%; remaining binding at 1 µM (ERBB4): 66%; remaining binding at 1 µM (PDPK1): 92%; remaining binding at 1 µM (PAK1): 100%; remaining binding at 1 µM (BLK): 16%; remaining binding at 1 µM (ERBB2): 89%; remaining binding at 1 µM (EGFR): 87%; remaining binding at 1 µM (AKT2): 94%; remaining binding at 1 µM (AXL): 93%
